{"source": "patent US7084144B2", "about": "“Sulfonyl group containing compounds and their use for the treatment of erectile dysfunction” (The Jordanian Pharmaceutical MFG & Medical Equipment CO LTD, priority 2000, dated 2006)", "key": {"male rats": {"system": "male rats", "experiment": "Penile erection (responding rats, PEI, ED50) in male rats after oral administration", "type": "in vivo, rat", "conditions": "for PEI (penile erection indexes) for selected molecules: Tables 4-6, dose not given; for PEI (penile erection index) / responding rats % / Calculated ED50: male rats, oral; for PEI (penile erection index) / responding rats %: 10 rats used, 2 hours observation; for Calculated ED50: responding rats as a function of dose", "method": "The purpose of the study was to compare the biological activity of compound 1 of the present invention with that of sildenafil. In particular, the respective ED50 value (ED=effective dose), erection episodes and penile erection indexes of said compounds in the treatment of male rats were determined. The penile erection index is an established means of determining the erection promoting properties of a substance (see e.g. Benassi-Benelli, F., Ferari, F., and Pellegrini Quaratotti, B., Arch. Int. Pharmacodyn., 242, 241–247, (1979), and Ang. H. H., Sim, M. K., Pharm. Sci., 3, 17–119, (1997) and references cited therein).\nIn these experiments, compound 1 of the present invention and sildenafil were administered to male rats orally. The doses for sildenafil were 0.0781, 0.1562, 0.3125 and 0.625 mg/kg body weight, while doses for compound 1 of the present invention were 0.3, 0.6, 1, and 2 mg/kg body weight. Both sildenafil and compound 1 of the present invention were dissolved in distilled water. Control animals were administered with water. During the experiments, the rats were placed in glass cages for observation and had free access to food and water. During 2 hours after administration of the investigated compound, the penile erection and self-sucking were monitored."}, "[1]": {"system": "cGMP accumulation in isolated rabbit corpus carvenosum tissue", "experiment": "cGMP accumulation in isolated rabbit corpus carvenosum tissue (ELISA), with and without NO donor SNP", "type": "cell-based, White New Zealand rabbits", "conditions": "FIG. 1; for effect on the levels of cGMP: absence of NO donor, tested concentrations up to 100,000 nM", "method": "(§1) Method for Analysis of cGMP & cAMP Synthesis and Accumulation in Penile Tissues: White New Zealand rabbits were sacrificed. Excise the penises rapidly after killing the animals, remove epidermal & connective tissue. Dissect out and discard the urethra carefully. Cut the penises longitudinally into 2 equal strips and then laterally to give about 20–40 segments. Pool and incubate the segments of the corpus cavernosum in Dulbecco's minimum essential Medium (MEM) at room temperature for one hour to allow the tissues to recover from preparative handling. Effect of Drug on cGMP and cAMP Formation:\n(§2) Place one penile segment in triplicate for each drug dose in 200 μl MEM. Place one penile segment in triplicate for each drug dose with 10 μM SNP (sodium nitroprusside) in 200 μl MEM. (in the case of cGMP). Incubate the tubes at 37° C. for 30 min, stop the reaction by adding 200 μl of 1 mol/l perchloric acid and sonicate for 5 min. Neutralize the aliquots with 0.5 mol/l K3PO4.3H2O to pH 6.2 (240 μl), centrifuge and take the supernatant in aliquots. Keep at 4° C. and assay for the concentrations of cAMP and cGMP in the extract using ELISA (enzyme linked immunosorbant assay). Preparation of Zero sample: Add 200 ul MEM, 200 ul 1M perchloric acid and 240 μl 0.5 mol/L K3PO4.3H2O in one tube.\n(§3) The main concentrations were in the range 0–20,000 or 100,000 nM. A stock solution of 1 mM for both drugs were prepared in distilled water. Serial dilution were prepared in MEM giving working drug concentrations of 0, 1000, 4000, 8000, 10000, 20000 and 100000 nM. In the case of cGMP the tests were carried out with and without NO donor (SNP). For this purpose 10 μM SNP was included when necessary."}, "[2]": {"system": "cAMP accumulation in isolated rabbit corpus carvenosum tissue", "experiment": "cAMP accumulation in isolated rabbit corpus carvenosum tissue (ELISA)", "type": "cell-based, White New Zealand rabbits", "conditions": "absence of NO donor, FIG. 2; for effect on the accumulation of cAMP levels: up to 20,000 nM", "method": "as §1, §2, §3"}}, "note": "Entries after “also recorded” stand apart in the source; their conditions may differ.", "data": [{"compound": "Cc1ccc(S(=O)(=O)NN2CCN(C)CC2)cc1", "note": "[R0=—CH3; R1=—CH3; n=0 (Table 6)]", "values": [{"measurement": "PEI (penile erection indexes) for selected molecules", "setting": "male rats", "result": 90}]}, {"compound": "CN1CCN(S(=O)(=O)c2ccc3c(c2)OCO3)CC1", "note": "[Compound 1]", "values": [{"measurement": "concentration giving maximum increase of cGMP levels", "setting": "[1]; NO donor added (10 μM SNP)", "result": "about 4000 nM"}, {"measurement": "effect on cGMP accumulation compared with sildenafil", "setting": "[1]; NO donor added (10 μM SNP), at 10,000 nM", "result": "better effect than sildenafil"}, {"measurement": "effect on the levels of cGMP", "setting": "[1]", "result": "very little effect; also recorded: weak effect"}, {"measurement": "melting point", "result": "137 to 138", "unit": "°C"}, {"measurement": "PEI (penile erection indexes) for selected molecules", "setting": "male rats", "result": 1015}, {"measurement": "PEI (penile erection index)", "setting": "male rats; dose 0.3 mg/kg", "result": 22.5}, {"measurement": "responding rats %", "setting": "male rats; dose 0.3 mg/kg", "result": 15, "unit": "%"}, {"measurement": "PEI (penile erection index)", "setting": "male rats; dose 0.6 mg/kg", "result": 260}, {"measurement": "responding rats %", "setting": "male rats; dose 0.6 mg/kg", "result": 40, "unit": "%"}, {"measurement": "PEI (penile erection index)", "setting": "male rats; dose 1.0 mg/kg", "result": 665}, {"measurement": "responding rats %", "setting": "male rats; dose 1.0 mg/kg", "result": 70, "unit": "%"}, {"measurement": "PEI (penile erection index)", "setting": "male rats; dose 2.0 mg/kg", "result": 1020}, {"measurement": "responding rats %", "setting": "male rats; dose 2.0 mg/kg", "result": 85, "unit": "%"}, {"measurement": "Calculated ED50", "setting": "male rats", "result": "^(3)Calculated ED50 = 0.7822 mg/kg body weight"}, {"measurement": "effect on the accumulation of cAMP levels", "setting": "[2]", "result": "no effect at all"}]}, {"compound": "CN1CCN(S(=O)(=O)c2ccccc2)CC1", "note": "[R0=—CH3; R1=—H (Table 4)]", "values": [{"measurement": "PEI (penile erection indexes) for selected molecules", "setting": "male rats", "result": 420}]}, {"compound": "CN1CCN(NS(=O)(=O)c2ccccc2)CC1", "note": "[R0=—CH3; R1=—H; n=0 (Table 6)]", "values": [{"measurement": "PEI (penile erection indexes) for selected molecules", "setting": "male rats", "result": 80}]}, {"compound": "CCCc1nn(C)c2c(=O)[nH]c(-c3cc(S(=O)(=O)N4CCN(C)CC4)ccc3OCC)nc12", "note": "[Sildenafil, sildenafil, reference compound]", "values": [{"measurement": "concentration giving maximum increase of cGMP levels", "setting": "[1]; NO donor added (10 μM SNP)", "result": "about 10,000 nM"}, {"measurement": "effect on the levels of cGMP", "setting": "[1]", "result": "very little effect; also recorded: almost flat effect"}, {"measurement": "PEI (penile erection index)", "setting": "male rats; dose 0.0781 mg/kg", "result": 90}, {"measurement": "responding rats %", "setting": "male rats; dose 0.0781 mg/kg", "result": 30, "unit": "%"}, {"measurement": "PEI (penile erection index)", "setting": "male rats; dose 0.1562 mg/kg", "result": 150}, {"measurement": "responding rats %", "setting": "male rats; dose 0.1562 mg/kg", "result": 30, "unit": "%"}, {"measurement": "PEI (penile erection index)", "setting": "male rats; dose 0.3125 mg/kg", "result": 350}, {"measurement": "responding rats %", "setting": "male rats; dose 0.3125 mg/kg", "result": 50, "unit": "%"}, {"measurement": "PEI (penile erection index)", "setting": "male rats; dose 0.625 mg/kg", "result": 980}, {"measurement": "responding rats %", "setting": "male rats; dose 0.625 mg/kg", "result": 70, "unit": "%"}, {"measurement": "Calculated ED50", "setting": "male rats", "result": "^(2)Calculated ED50 = 0.2473 mg/kg body weight"}, {"measurement": "concentration giving maximum increase in cAMP levels", "setting": "[2]", "result": "8000–10,000 nM"}, {"measurement": "effect on the accumulation of cAMP levels", "setting": "[2]", "result": "remarkable increase"}]}, {"compound": "Cc1ccc(S(=O)(=O)N2CCN(C)CC2)cc1", "note": "[R0=—CH3; R1=—CH3 (Table 4)]", "values": [{"measurement": "PEI (penile erection indexes) for selected molecules", "setting": "male rats", "result": 240}]}]}
